Converted amounts (≈) assume the structure as drawn.
How the values were obtained:
human TLR9 = biological target: T1, human TLR9 (Homo sapiens, UniProt Q9NR96); assay: HEK293-Blue-hTLR-9 cells assay (SEAP reporter, ODN2006 stimulation); format: cell-based; conditions: HEK293-Blue-hTLR9 cells, ODN2006, 20 hrs
T1 construct: host or cells: HEK293 (HEK-Blue hTLR9)
T1 sequence (Q9NR96 26-1032): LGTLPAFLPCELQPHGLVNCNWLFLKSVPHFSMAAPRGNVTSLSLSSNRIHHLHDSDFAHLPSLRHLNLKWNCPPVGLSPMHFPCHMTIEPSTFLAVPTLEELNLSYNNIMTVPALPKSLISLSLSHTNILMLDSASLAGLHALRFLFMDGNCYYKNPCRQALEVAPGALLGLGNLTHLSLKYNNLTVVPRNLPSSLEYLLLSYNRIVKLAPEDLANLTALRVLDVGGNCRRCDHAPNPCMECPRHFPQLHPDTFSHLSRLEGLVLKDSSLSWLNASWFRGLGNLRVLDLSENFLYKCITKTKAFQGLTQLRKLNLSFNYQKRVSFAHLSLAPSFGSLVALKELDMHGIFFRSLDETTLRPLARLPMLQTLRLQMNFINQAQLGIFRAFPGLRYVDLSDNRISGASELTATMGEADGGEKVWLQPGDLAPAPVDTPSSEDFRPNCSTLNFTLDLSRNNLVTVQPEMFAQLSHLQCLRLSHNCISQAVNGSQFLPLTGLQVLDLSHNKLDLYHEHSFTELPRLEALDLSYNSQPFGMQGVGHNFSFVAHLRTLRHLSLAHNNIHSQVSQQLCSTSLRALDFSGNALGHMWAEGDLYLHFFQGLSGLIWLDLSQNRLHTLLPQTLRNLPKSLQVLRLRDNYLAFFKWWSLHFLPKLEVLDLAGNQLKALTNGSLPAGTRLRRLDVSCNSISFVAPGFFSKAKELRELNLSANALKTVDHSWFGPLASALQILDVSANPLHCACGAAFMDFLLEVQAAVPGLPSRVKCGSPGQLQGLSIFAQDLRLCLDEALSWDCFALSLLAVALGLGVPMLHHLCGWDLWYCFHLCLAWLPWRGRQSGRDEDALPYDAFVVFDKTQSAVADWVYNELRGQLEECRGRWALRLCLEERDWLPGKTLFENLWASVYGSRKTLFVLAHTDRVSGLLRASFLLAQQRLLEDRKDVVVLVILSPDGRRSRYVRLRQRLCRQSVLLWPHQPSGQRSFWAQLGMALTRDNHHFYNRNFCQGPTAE
Method: The following tests were carried out in order to determine the activity of the compounds of formula (I) in HEK293-Blue-hTLR-7/8/9 cells assay.
HEK293-Blue-hTLR-9 Cells Assay:
A stable HEK293-Blue-hTLR-9 cell line was purchased from InvivoGen (Cat. #. hkb-htlr9, San Diego, Calif., USA). These cells were originally designed for studying the stimulation of human TLR9 by monitoring the activation of NF-κB. A SEAP (secreted embryonic alkaline phosphatase) reporter gene was placed under the control of the […] minimal promoter fused to five NF-κB and AP-1-binding sites. The SEAP was induced by activating NF-κB and AP-1 via stimulating HEK-Blue hTLR9 cells with TLR9 ligands. Therefore the reporter expression was declined by TLR9 antagonist under the stimulation of a ligand, such as ODN2006 (Cat. #: tlrl-2006-1, Invivogen, San Diego, Calif., USA), for incubation of 20 hrs. The cell culture supernatant SEAP reporter activity was determined using QUANTI-Blue™ kit (Cat. #: rep-qbl, Invivogen, San Diego, Calif., USA) at a wavelength of 640 nm, a detection medium that turns purple or blue in the presence of alkaline phosphatase.
HEK293-Blue-hTLR9 cells were incubated at a density of […] cells/mL in a volume of 170 μL, in a 96-well plate in Dulbecco's Modified Eagle's medium (DMEM) containing 4.5 g/L glucose, 50 U/mL penicillin, […], […], 2 mM L-glutamine, 10% (v/v) heat-inactivated fetal bovine serum with addition of 20 μL test compound in a serial dilution in the presence of final DMSO at 1% and 10 μL of 20 uM ODN2006 in above DMEM, perform incubation under 37° C. in a CO2 incubator for 20 hrs. Then 20 μL of the supernatant from each well was incubated with 180 μL Quanti-blue substrate solution at 37° C. for 2 hrs and the absorbance was read at 620˜655 nm using a spectrophotometer. The signalling pathway that TLR9 activation leads to downstream NF-κB activation has been widely accepted, and therefore similar reporter assay was modified for evaluating TLR9 antagonist.

LYSA solubility assay = format: physicochemical; conditions: for LYSA: 0.05 M phosphate buffer (pH 6.5); for solubility thermodynamic: 0.05 M phosphate buffer, pH 6.5, aqueous buffer, thermodynamic from solid
Method: LYSA study is used to determine the aqueous solubility of tested compounds. Samples are prepared in duplicate from 10 mM DMSO stock solution. After evaporation of DMSO with a centrifugal vacuum evaporator, compounds are dissolved in a 0.05 M phosphate buffer (pH 6.5), stirred for one hr and shaken for two hrs. After one night, the solutions are filtered using a microtiter filter plate. Then the filtrate and its 1/10 dilution are analyzed by HPLC-UV. In addition, a four-point calibration curve is prepared from the 10 mM stock solutions and used for the solubility determination of the compounds. The results are in μg/mL. In case the percentage of sample measured in solution after evaporation divided by the calculated maximum of sample amount is bigger than 80%, the solubility is reported as bigger than this value.

[1] = Human microsome stability assay; format: in vitro ADME; conditions: 1 μM test compound, 0.5 mg/mL protein
Method: The human microsomal stability assay is used for early assessment of metabolic stability of a test compound in human liver microsomes.
Human liver microsomes (Cat. NO.: 452117, Corning, USA; Cat. NO.: H2610, Xenotech, USA) were preincubated with test compound for 10 minutes at 37° C. in 100 mM potassium phosphate buffer, pH 7.4. The reactions were initiated by adding NADPH regenerating system. The final incubation mixtures contained 1 μM test compound, 0.5 mg/mL liver microsomal protein, 1 mM MgCl2, 1 mM NADP, 1 unit/mL isocitric dehydrogenase and 6 mM isocitric acid in 100 mM potassium phosphate buffer, pH 7.4. After incubation times of 0, 3, 6, 9, 15 and 30 minutes at 37° C., 300 μL of cold ACN (including internal standard) was added to 100 μL incubation mixture to terminate the reaction. Following precipitation and centrifugation, the amount of compound remaining in the samples were determined by LC-MS/MS. Controls of no NADPH regenerating system at zero and 30 minutes were also prepared and analyzed. The results were categorized as: low (<7.0 mL/min/kg), medium (7.0˜16.2 mL/min/kg) and high (16.2-23.2 mL/min/kg).

SMILES | IC50 (human TLR9) [µM] | clearance in human liver microsomes [1] [mL/min/kg] | solubility thermodynamic (LYSA solubility assay) [µg/mL] | LYSA (LYSA solubility assay) [µg/mL]
C[C@@H]1CN(c2ccc(C(F)(F)F)c3ncccc23)C[C@H](C(=O)N2CC(N)C2)O1 [Example 7, (3-aminoazetidin-1-yl)-[(2R,6R)-6-methyl-4-[8-(trifluoromethyl)-5-quinolyl]morpholin-2-yl]methanone] | 68.5 | 6.15 | > 605 | 
C[C@@H]1CN(c2ccc(C(F)(F)F)c3ncccc23)C[C@H](C(=O)N2CCC(N)C2)O1 (stereo partly drawn) [Example 10, (3-aminopyrrolidin-1-yl)-[(2R,6R)-6-methyl-4-[8-(trifluoromethyl)-5-quinolyl]morpholin-2-yl]methanone] | 18.4 | 6.15 | > 655 | 
C[C@@H]1CN(c2ccc(Cl)c3ncccc23)C[C@H](C(=O)N[C@H]2CNC[C@H]2F)O1 [Example 22, (2R,6R)-4-(8-chloro-5-quinolyl)-N-[(3S,4R)-4-fluoropyrrolidin-3-yl]-6-methyl-morpholine-2-carboxamide] | 37 | 6.15 | > 455 | 
C[C@@H]1CN(c2ccc(C(F)(F)F)c3ncccc23)C[C@H](C(=O)NCCN2CCOCC2)O1 [Example 13, (2R,6R)-6-methyl-N-(2-morpholinoethyl)-4-[8-(trifluoromethyl)-5-quinolyl]morpholine-2-carboxamide] | > 100 |  | > 725 | 
C[C@@H]1CN(c2ccc(C(F)(F)F)c3ncccc23)C[C@H](C(=O)NC2CNCC(F)(F)C2)O1 (stereo partly drawn) [Example 28, (2R,6R)-N-(5,5-difluoro-3-piperidyl)-6-methyl-4-[8-(trifluoromethyl)-5-quinolyl]morpholine-2-carboxamide] | > 100 |  | 480 (≈ 1050 µM) | 
C[C@@H]1CN(c2ccc(C(F)(F)F)c3ncccc23)C[C@H](C(=O)NC[C@@H]2CC(F)(F)CN2)O1 [Example 30] | > 100 |  | 375 (≈ 818 µM) | 
C[C@@H]1CN(c2ccc([N+](=O)[O-])c3ncccc23)C[C@H](C(=O)N[C@@H]2CNC[C@@H]2F)O1 [Example 19, cis-(2R,6R)-N-[41-fluoropyrrolidin-3-yl]-6-methyl-4-(8-nitro-5-quinolyl)morpholine-2-carboxamide] | 50.7 |  | > 510 | 
C[C@@H]1CN(c2ccc(I)c3ncccc23)C[C@H](C(=O)NCC2CN(C)CCO2)O1 (stereo partly drawn) [Example 39, (2R,6R)-4-(8-iodo-5-quinolyl)-6-methyl-N-[(4-methylmorpholin-2-yl)methyl]morpholine-2-carboxamide] | 35.8 |  | > 625 | 
C[C@@H]1CN(c2ccc(C(F)(F)F)c3ncccc23)C[C@H](C(=O)NC2C[C@H]3C[C@@H]2CN3)O1 (stereo partly drawn) [Example 44] | 15.7 |  | > 600 | 
C[C@@H]1CN(c2ccc(C(F)(F)F)c3ncccc23)C[C@H](C(=O)NC2CC3CCC(C2)N3)O1 (single isomer, unassigned) [Example 47B] | 10.5 |  |  | >605.0

Second part, led by results:

IC50 (human TLR9) [µM] | clearance in human liver microsomes [1] [mL/min/kg] | solubility thermodynamic (LYSA solubility assay) [µg/mL] | SMILES | LYSA (LYSA solubility assay) [µg/mL]
7.3 | 6.15 |  | C[C@@H]1CN(c2ccc(C(F)(F)F)c3ncccc23)C[C@H](C(=O)NC2CC3CNCC32)O1 (single isomer, unassigned) [Example 49B] | >690.0
15.5 | 6.15 | > 655 | C[C@@H]1CN(c2ccc(C(F)(F)F)c3ncccc23)C[C@H](C(=O)NC2CCN(C)CC2)O1 [Example 5, (2R,6R)-6-methyl-N-(1-methyl-4-piperidyl)-4-[8-(trifluoromethyl)-5-quinolyl]morpholine-2-carboxamide] | 
10.3 | 6.15 | > 680 | C[C@@H]1CN(c2ccc(C(F)(F)F)c3ncccc23)C[C@H](C(=O)NC2CCCNCC2)O1 (stereo partly drawn) [Example 8, (2R,6R)-N-(azepan-4-yl)-6-methyl-4-[8-(trifluoromethyl)-5-quinolyl]morpholine-2-carboxamide] | 
11.7 |  | > 625 | C[C@@H]1CN(c2ccc(C(F)(F)F)c3ncccc23)C[C@H](C(=O)NCC2CNCCO2)O1 (stereo partly drawn) [Example 48, (2R,6R)-6-methyl-N-(morpholin-2-ylmethyl)-4-[8-(trifluoromethyl)-5-quinolyl]morpholine-2-carboxamide] | 
12.3 |  | > 595 | C[C@@H]1CN(c2ccc(C(F)(F)F)c3ncccc23)C[C@H](C(=O)N2CCC3(CCNC3)C2)O1 (stereo partly drawn) [Example 36] | 
12.3 |  | > 560 | C#Cc1ccc(N2C[C@@H](C)O[C@@H](C(=O)NC3CCN(C)CC3)C2)c2cccnc12 [Example 43, (2R,6R)-4-(8-ethynyl-5-quinolyl)-6-methyl-N-(1-methyl-4-piperidyl)morpholine-2-carboxamide] | 
7.8 |  | > 660 | C[C@@H]1CN(c2ccc(C(F)(F)F)c3ncccc23)C[C@H](C(=O)NC2CC3CNCC(C3)C2)O1 (stereo partly drawn) [Example 37, (2R,6R)-N-(3-azabicyclo[3.3.1]nonan-7-yl)-6-methyl-4-[8-(trifluoromethyl)-5-quinolyl]morpholine-2-carboxamide] | 
9.7 | 6.15 |  | C[C@H]1C[C@@H](N)CN(c2ccc(C(F)(F)F)c3ncccc23)C1 [Example 1, (3R,5S)-5-methyl-1-[8-(trifluoromethyl)-5-quinolyl]piperidin-3-amine] | 

— patent US20220363665A1, “QUINOLINE COMPOUNDS FOR THE TREATMENT OF AUTOIMMUNE DISEASE” (Hoffmann-La Roche Inc., priority 2019, published 2022)
